Measurements reported in patent US6737383B1, “Herbicidal oxadiazolidines” (priority 1999, dated 2004).

What was measured:
purple nutsedge = experiment: Test B pre/postemergence purple nutsedge; format: in vivo, Cyperus rotundus
Procedure, shortened: (§1)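 Herbicidal effect was estimated by eye on a ten-point control scale after plants spent twelve to sixteen days in a greenhouse following soil or foliar treatment. Foliar sprays targeted plants at one to four leaves; all doses were formulated in a non-phytotoxic solvent with surfactant.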

rape = experiment: Test B pre/postemergence rape; format: in vivo, Brassica napus
Procedure, shortened: as §1

pigweed = experiment: Test B pre/postemergence pigweed; format: in vivo, Amaranthus retroflexus
Procedure, shortened: as §1

wheat = experiment: Test B pre/postemergence wheat; format: in vivo, Triticum aestivum
Procedure, shortened: as §1

morningglory = experiment: Test B pre/postemergence morningglory; format: in vivo, Ipomoea hederacea
Procedure, shortened: as §1

velvetleaf = experiment: Test B pre/postemergence velvetleaf; format: in vivo, Abutilon theophrasti
Procedure, shortened: as §1

surinam grass = experiment: Test B pre/postemergence surinam grass; format: in vivo, Brachiaria decumbens
Procedure, shortened: as §1

bamyardgrass = experiment: Test B flood test barnyardgrass; format: in vivo, Echinochloa crus-galli
Procedure, shortened: (§2)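 Flood test on plants grown to the 2-leaf stage; treated plants kept in greenhouse twelve to sixteen days, then visually rated against controls on a 0 (no effect) to 10 (complete control) scale.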

cocklebur = experiment: Test B pre/postemergence cocklebur; format: in vivo, Xanthium strumarium
Procedure, shortened: as §1

soybean = experiment: Test B pre/postemergence soybean; format: in vivo, Glycine max
Procedure, shortened: as §1

blackgrass = experiment: Test B pre/postemergence blackgrass; format: in vivo, Alopecurus myosuroides
Procedure, shortened: as §1

bedstraw = experiment: Test B pre/postemergence bedstraw; format: in vivo, Galium aparine
Procedure, shortened: as §1

giant foxtail = experiment: Test B pre/postemergence giant foxtail; format: in vivo, Setaria faberii
Procedure, shortened: as §1

smallflower flatsedge = experiment: Test B flood test smallflower flatsedge; format: in vivo, Cyperus difformis
Procedure, shortened: as §2

duck salad = experiment: Test B flood test duck salad; format: in vivo, Heteranthera limosa
Procedure, shortened: as §2

wild oat = experiment: Test B pre/postemergence wild oat; format: in vivo, Avena fatua
Procedure, shortened: as §1

[1] = Postemergence, Rate 62 g/ha, scale 0 to 10, 0 is no effect, 10 is complete control
[2] = Postemergence, Rate 125 g/ha, scale of 0 to 10 where 0 is no effect and 10 is complete control
[3] = Preemergence, Rate 62 g/ha, scale of 0 to 10 where 0 is no effect and 10 is complete control
[4] = Preemergence, Rate 125 g/ha, scale of 0 to 10 where 0 is no effect and 10 is complete control
[5] = Preemergence, Rate 500 g/ha, scale of 0 to 10 where 0 is no effect and 10 is complete control
[6] = Rate 500 g/ha, Postemergence, scale 0 to 10, 0 is no effect, 10 is complete control
[7] = Postemergence, Rate 250 g/ha, scale of 0 to 10, 0 is no effect, 10 is complete control
[8] = Preemergence, Rate 250 g/ha, scale 0 to 10 (0 no effect, 10 complete control)
[9] = Rate 62 g/ha, flood test species, Pre-emergence, visual evaluation after twelve to sixteen days
[10] = Rate 125 g/ha, under heading Pre-emergence, flood test species, visual evaluation after twelve to sixteen days
[11] = Rate 250 g/ha, Pre-emergence (flood test species), scale 0 to 10, 0 is no effect, 10 is complete control
[12] = Rate 500 g/ha, Pre-emergence section of Table B, 0 to 10 scale (0 no effect, 10 complete control)

CC(C)N(C(=O)n1oc(=O)n(CCCC#N)c1=O)c1ccc(F)cc1F [Compound 675]
6: Plant response rating, Morningglory (morningglory; [5]) | Velvetleaf plant response rating (velvetleaf; [3]) | Plant response rating, B. signalgrass (surinam grass; [4]) | Bedstraw plant response rating (bedstraw; [7])
0: Plant response rating, Nutsedge (purple nutsedge; [1]) | Nutsedge plant response rating (purple nutsedge; [2]) | Nutsedge plant response rating (purple nutsedge; [3]) | Plant response rating, Nutsedge (purple nutsedge; [4]) | Plant response rating, Rape (rape; [1]) | Rape plant response rating (rape; [2]) | Plant response rating, Wheat (wheat; [1]) | Wheat plant response rating (wheat; [3]) | Morningglory plant response rating (morningglory; [3]) | Plant response rating, Morningglory (morningglory; [4]) | Plant response rating, Velvetleaf (velvetleaf; [1]) | Plant response rating, Barnyardgrass (0 to 10 scale, 0 is no effect, 10 is complete control) (bamyardgrass; [9]) | Barnyardgrass plant response rating (0 to 10 scale, 0 is no effect, 10 is complete control) (bamyardgrass; [10]) | Barnyardgrass plant response rating (bamyardgrass; [11]) | Barnyardgrass plant response rating (bamyardgrass; [12]) | Plant response rating, Cocklebur (cocklebur; [1]) | Cocklebur plant response rating (cocklebur; [3]) | Plant response rating, Cocklebur (cocklebur; [4]) | Plant response rating, Cocklebur (cocklebur; [8]) | Plant response rating, Cocklebur (cocklebur; [5]) | Soybean plant response rating (soybean; [3]) | Plant response rating, Soybean (soybean; [4]) | Plant response rating, Bedstraw (bedstraw; [1]) | Bedstraw plant response rating (bedstraw; [3]) | Plant response rating, S. Flatsedge (0 to 10 scale, 0 is no effect, 10 is complete control) (smallflower flatsedge; [9]) | S. Flatsedge plant response rating (0 to 10 scale, 0 is no effect, 10 is complete control) (smallflower flatsedge; [10]) | S. Flatsedge plant response rating (smallflower flatsedge; [11]) | S. Flatsedge plant response rating (smallflower flatsedge; [12]) | Plant response rating, Ducksalad (0 to 10 scale, 0 is no effect, 10 is complete control) (duck salad; [9]) | Ducksalad plant response rating (0 to 10 scale, 0 is no effect, 10 is complete control) (duck salad; [10]) | Ducksalad plant response rating (duck salad; [11]) | Ducksalad plant response rating (duck salad; [12]) | Plant response rating, Wild oats (wild oat; [1]) | Wild oats plant response rating (wild oat; [2])
1: Plant response rating, Morningglory (morningglory; [1]) | Plant response rating, B. signalgrass (surinam grass; [1]) | Bedstraw plant response rating (bedstraw; [2])
7: Plant response rating, Nutsedge (purple nutsedge; [5]) | Wheat plant response rating (wheat; [6]) | Plant response rating, Velvetleaf (velvetleaf; [4]) | Blackgrass plant response rating (blackgrass; [7]) | Wild oats plant response rating (wild oat; [6])
4: Morningglory plant response rating (morningglory; [6]) | B. signalgrass plant response rating (surinam grass; [2]) | B. signalgrass plant response rating (surinam grass; [3]) | Plant response rating, Soybean (soybean; [1]) | Plant response rating, Soybean (soybean; [5]) | Wild oats plant response rating (wild oat; [3])
5: Redroot pigweed plant response rating (pigweed; [3]) | Soybean plant response rating (soybean; [2]) | Soybean plant response rating (soybean; [6]) | Plant response rating, Blackgrass (blackgrass; [1]) | Blackgrass plant response rating (blackgrass; [2]) | Blackgrass plant response rating (blackgrass; [3]) | Plant response rating, Wild oats (wild oat; [4])
10: Plant response rating, Rape (rape; [5]) | Plant response rating, Redroot pigweed (pigweed; [5]) | Plant response rating, Velvetleaf (velvetleaf; [5]) | Plant response rating, B. signalgrass (surinam grass; [5]) | Plant response rating, Blackgrass (blackgrass; [5]) | Plant response rating, Bedstraw (bedstraw; [8]) | Plant response rating, Bedstraw (bedstraw; [5]) | Plant response rating, Giant foxtail (giant foxtail; [4]) | Plant response rating, Giant foxtail (giant foxtail; [5]) | Plant response rating, Wild oats (wild oat; [5])
9: Plant response rating, Redroot pigweed (pigweed; [4]) | Plant response rating, Wheat (wheat; [5]) | Plant response rating, Blackgrass (blackgrass; [4]) | Plant response rating, Blackgrass (blackgrass; [8]) | Blackgrass plant response rating (blackgrass; [6]) | Giant foxtail plant response rating (giant foxtail; [2]) | Giant foxtail plant response rating (giant foxtail; [7]) | Giant foxtail plant response rating (giant foxtail; [3]) | Giant foxtail plant response rating (giant foxtail; [6])
3: Plant response rating, Rape (rape; [4]) | Rape plant response rating (rape; [6]) | Wheat plant response rating (wheat; [2]) | Cocklebur plant response rating (cocklebur; [2]) | Cocklebur plant response rating (cocklebur; [7]) | Cocklebur plant response rating (cocklebur; [6])
2: Rape plant response rating (rape; [3]) | Plant response rating, Redroot pigweed (pigweed; [1]) | Redroot pigweed plant response rating (pigweed; [2]) | Plant response rating, Wheat (wheat; [4]) | Morningglory plant response rating (morningglory; [2]) | Morningglory plant response rating (morningglory; [7]) | Velvetleaf plant response rating (velvetleaf; [2]) | Plant response rating, Bedstraw (bedstraw; [4])
8: Nutsedge plant response rating (purple nutsedge; [6]) | Redroot pigweed plant response rating (pigweed; [6]) | Velvetleaf plant response rating (velvetleaf; [6]) | B. signalgrass plant response rating (surinam grass; [7]) | Plant response rating, B. signalgrass (surinam grass; [8]) | B. signalgrass plant response rating (surinam grass; [6]) | Plant response rating, Giant foxtail (giant foxtail; [1])
